According to publication PMC9059851 (RSC Advances, 2019):

Experiment: Zeta potential measurement
Assay type: physicochemical
Details: NanoZS, solutions in pH 7.4 phosphate buffer

With `C[C@]12CC[C@H](O)C[C@H]1CC[C@@H]1[C@@H]2CC[C@]2(C)[C@@H](c3ccc(=O)oc3)CC[C@]12O` [bufalin] the zeta potential was −0.55 mV.
